Measurements published in ChEMBL document CHEMBL1128081, “Synthesis of dibenzo[a,d]cycloheptanes as cytokine biosynthesis inhibitors” (Bioorg Med Chem Lett, 1995).
pIC50: −log10 of the molar value.

Legend:
Assay type in all cases: functional
[1] = system: Mus musculus; assay: Ability to inhibit the accumulation of cytokine interleukin-6 (IL-6) in the serum of […] parvum-primed mice by po administration
[2] = system: Mus musculus; assay: Ability to inhibit the accumulation of gamma-interferon (gamma-IFN) in the serum of […] parvum-primed mice by po administration
[3] = system: Mus musculus; assay: Ability to inhibit the accumulation of inflammatory cytokine interleukin-1 alpha (IL-1 alpha) in the serum of […] parvum-primed mice by po administration
[4] = system: Mus musculus; assay: Ability to inhibit the accumulation of tumor necrosis factor-alpha (TNF-alpha) in the serum of […] parvum-primed mice by po administration
[5] = species: Mus musculus; assay: In vitro inhibitory activity was measured for the release of tumor necrosis factor-alpha (TNF-alpha) from a murine monocytic cell line

In the case of `CCOCC1(CCN(C)C)c2ccccc2CCc2ccccc21`, the ED50 [1] was over 25 mg/kg, the ED50 [2] was 13.5 mg/kg and the ED50 [3] was 18.1 mg/kg. It also gave an ED50 [4] of 19.6 mg/kg.
`CCCC1(CCN(C)C)c2ccccc2CCc2ccccc21` gave an ED50 [1] of 23.3 mg/kg, an ED50 [2] of 10.8 mg/kg and an ED50 [3] of 6.25 mg/kg.
With `CCOCC1(CCNC)c2ccccc2CCc2ccccc21` the ED50 [1] was over 25 mg/kg, the ED50 [2] was over 25 mg/kg and the ED50 [3] was over 25 mg/kg. The ED50 [4] was over 25 mg/kg.
Molecule `CCCC1(CN(C)C)c2ccccc2CCc2ccccc21` has an ED50 [1] of 25 mg/kg, an ED50 [2] of 3.9 mg/kg and an ED50 [3] of over 25 mg/kg. The ED50 [4] was over 25 mg/kg.
Molecule `CCOC1(CCN(C)C)c2ccccc2CCc2ccccc21` has an ED50 [1] of 8 mg/kg, an ED50 [2] of 1.3 mg/kg and an ED50 [3] of 2.4 mg/kg. For the same molecule, the ED50 [4] was 17.6 mg/kg and the pIC50 [5] was 5.77.
In the case of `CN(C)CCC1(O)c2ccccc2CCc2ccccc21`, the ED50 [1] was over 25 mg/kg, the ED50 [2] was over 25 mg/kg and the ED50 [3] was over 25 mg/kg. For the same molecule, the ED50 [4] was over 25 mg/kg.
For `CCCC1(CCCN(C)C)c2ccccc2CCc2ccccc21`, the ED50 [1] was 15.8 mg/kg, the ED50 [2] was 5.9 mg/kg and the ED50 [3] was 8.7 mg/kg. It also gave an ED50 [4] of over 25 mg/kg.
Molecule `CCOC1(CCN2CCCC2)c2ccccc2CCc2ccccc21` has an ED50 [2] of 11.3 mg/kg, an ED50 [3] of 11.1 mg/kg and an ED50 [4] of 16.1 mg/kg.
Molecule `CCOC1(CCN(C)C)c2ccccc2C=Cc2ccccc21` has an ED50 [1] of over 25 mg/kg, an ED50 [2] of 13.2 mg/kg and an ED50 [3] of over 6.25 mg/kg. For the same molecule, the ED50 [4] was over 25 mg/kg.
Work on `CCOC1(CCN(C)C)c2ccccc2CCc2cccnc21` (configuration not stated) yielded an ED50 [1] of over 25 mg/kg, an ED50 [2] of over 25 mg/kg and an ED50 [3] of over 25 mg/kg. The ED50 [4] was over 25 mg/kg.
For `CCOC1(CCN(C)C(C)=O)c2ccccc2CCc2ccccc21`, the ED50 [1] was over 25 mg/kg, the ED50 [2] was over 25 mg/kg and the ED50 [3] was over 25 mg/kg. For the same molecule, the ED50 [4] was over 25 mg/kg.
`CCCCCCC1(CCN(C)C)c2ccccc2CCc2ccccc21` showed an ED50 [1] of over 25 mg/kg, an ED50 [2] of over 25 mg/kg and an ED50 [3] of over 25 mg/kg. The ED50 [4] was over 25 mg/kg.
